# According to patent EP0414895A1, “OROTATE OF $g(a)-AMINO-$g(b)-PHENYL-BUTYRIC ACID” (NAUCHNO-PROIZVODSTVENNOE OBIEDINENIE "BIOLAR", priority 1989, dated 1990):
# Counter-ions that a name gives are not always drawn.
# How the values were obtained:
# Mäuse [1] = assay: Habituation study: electric pain stimulation thresholds on repeated dosing; type: in vivo
# Text: In einer Kammer von 20 x 20 x 25 cm Ausmass, deren Boden - ein Metallgitter aus Stangen darstellt, wurde ein Paar Tiere untergebracht (männliche Mäuse) und es wurde der Wechselstrom durchgelassen. Die Spannung wurde dosenartig auf 5 V solange erhöht, bis der Strom das Piepsen (die Schwelle der emotionellen Reaktivität) und die Schlägerei der Tiere (die Schwelle der Aggressivität) auslöste. Jede Spannungsgrösse wurde innerhalb von 5 sec zweimal in einem Zeitabstand von 20 bis 50 Sekunden aufrechterhalten. Die Kontrolle des Benehmens der Tiere begann man I0 Minuten nach der Einführung der oben erwähnten Verbindungen. Die Angaben sind in Tabellen 3, 4 angeführt.
# (§1) Zur Untersuchung der Gewöhnung an die Wirkung der erfindungsgemässen Verbindung wurde die Dynamik der Benehmungseffekte an Mäusen beiderlei Geschlechts untersucht. In jeder Gruppe waren je I2 bis I8 Tiere. Die erfindungsgemässe Verbindung und γ -Amino- β - -phenylbuttersäurehydrochlorid wurden intraperitoneal in Dosen von 75 mg/kg bzw. 48 mg/kg zweimal am Tag eingeführt. Es wurden die Körpermasse, der Einfluss auf die motorische Aktivität (im Aktometer) und auf die emotionelle Reaktivität aud dem Wege der elektrischen Schmerzreizung untersucht. Die Tiere wurden innerhalb von 15 bis 20 Tagen untersucht. […] Der sedative Effekt der beanspruchten Verbindung war während der ganzen Versuchsperiode aufrechterhalten (Tabelle 7).
# [2] = Habituation study: body mass; type: in vivo, Mäuse; settings: 75 mg/kg bzw. 48 mg/kg i.p. twice daily, 15 to 20 days
# Experimental: as §1
# Mäuse [3] = assay: Habituation study: motor activity in actometer on repeated dosing; type: in vivo
# Experimental: as §1
# Ratten [4] = assay: Swimming test at 2°C, rats; type: in vivo
# Text: (§2) Der Einfluss der beanspruchten Verbindung auf die physische Toleranz der Tiere wurde nach dem Schwimmtest der Mäuse und Ratten untersucht. Die Versuche wurden in einer Wanne von […] Fläche durchgeführt. Die Tiergruppe (8 bis I0 Mäuse oder Ratten) wurde ins Wasser gebracht und es wurde die Zeit der Schwimmfähigkeit bestimmt. Die neue Verbindung und γ -Amino- β - -phenylbuttersäurehydrochlorid wurden enteral und intraperitoneal I Stunde oder 3 Stunden vor dem Schwimmbeginn eingeführt. Die Untersuchung wurde sowohl nach der einmaligen als auch nach der chronischen (innerhalb von 20 Tagen einmal täglich) Einführung der genannten Verbindungen durchgeführt. Die Versuche wurden bei 3 Temperaturen angestellt: 2°C (Tabelle I7), 25°C (Tabelle I8) und 40°C (Tabelle I9).
# Mäuse [5] = assay: Hemic hypoxia by intraperitoneal Natriumnitrit, survival; type: in vivo; settings: Natriumnitrit 200 mg/kg i.p. 15 min after compound
# Experimental: Die gemische Hypoxie wurde durch die intraperitoneale und subkutane Verabreichung von Natriumnitrit in einer Dosis von 200 mg/kg den Gruppen zu I0 […] I5 min nach der Einführung der Prüfverbindungen erzeugt. Die Angaben sind in der Tabelle I2 (bei der intraperitonealen Einführung von Natriumnitrit) und Tabelle I3 (bei der subkutanen Einführung von Natriumnitrit) angeführt.
# Mäuse [6] = assay: Phenamin-induced hypermotility in actometer; type: in vivo
# Experimental: Eis wurde die Wirkung der beanspruchten Verbindung auf den durch Phenamin ausgelöston Effekt der Veränderung der Hypermotorik untersucht. Phenamin wurde den Mäusen intraperitoneal in Dosen von 3 und 5 mg/kg I0 Minuten nach der enteralen oder intraperitonealen Einführung der beanspruchten Verbindung und des Pyrazetams eingeführt. Die Tiere wurden in der Kammer des photoelektrischen Aktometers untergebracht. Die motorische Aktivität wurde nach der Zahl der Impulse innerhalb von 60 Minuten bestimmt. Die Angaben sind in der Tabelle 6 angeführt.
# Mäuse [7] = assay: Strophantin toxicity (arrhythmia), time to death; type: in vivo
# Text: Unter Berücksichtigung der Tatsache, dass einige Verbindungen, die ähnlich mit der erfindungsgemässen Verbindung eine sedative Wirkung besitzen, als symptomatische Mittel zur Behandlung von verschiedenen Arrhythmienarten angewendet werden können, wurde der Einfluss der erfindungsgemässen Verbindung auf die toxischen Strophantin-Effekte geprüft, die mit der Herzrhythmusstörung verbunden sind. Dazu wurde bei weissen Mäusen (die Gruppe aus I0 Tieren) die Zeit des Todeseintritts bei der intravenösen Einführung von Strophantin (0,0I%ige wässrige Lösung) im einzelnen und in Kombination mit der neuen Verbindung und mit γ -Amino--β -phenylbuttersäurehydrochlorid bestimmt. Die Ergebnisse dieser Versuche sind in der Tabelle 25 angeführt.
# [8] = Storage stability (description of the substance); type: physicochemical
# Ratten [9] = assay: Swimming test at 25°C; type: in vivo; settings: 50,0 mg/kg
# Text: as §2
# Mäuse [10] = assay: Hypoxia in hermetically closed vessel, survival; type: in vivo; settings: closed vessel 80 cm³
# Text: Nach der zweiten Methode wurden die Mäuse in einem hermetisch verschlossenen Gefäss von 80 cm³ Inhalt untergebracht, dabei wurde die Luft nicht abgesaugt, und es wurden keine CO₂-Sorptionsmittel zugegeben. Die Prüfverbindungen wurden I Stunde vor dem Beginn des Versuchs intraperitoneal eingeführt (siehe Tabelle II).
# Ratten [11] = assay: Habituation study over 6 months: motor activity of rats in actometer; type: in vivo
# Text: Das Ausbleiben der Gewöhnung an die beanspruchte Verbindung wurde auch in den Rattenversuchen festgestellt, die im Laufe von 6 Monaten zur Bestimmung der motorischen Aktivität der Ratten durchgeführt wurden.
# [12] = day 1, 48 mg/kg i.p. twice daily
# [13] = day 5, 48 mg/kg i.p. twice daily
# [14] = day 10, 48 mg/kg i.p. twice daily
# [15] = day 15, 48 mg/kg i.p. twice daily
# [16] = day 1, 75 mg/kg i.p. twice daily
# [17] = day 5, 75 mg/kg i.p. twice daily
# [18] = day 10, 75 mg/kg i.p. twice daily
# [19] = day 15, 75 mg/kg i.p. twice daily
compound,measurement,setting,value
"NCC(CC(=O)O)c1ccccc1 (stereo not drawn) [γ-Amino-β-phenylbutter-säurehydrochlorid, γ -Amino- β -phenylbuttersäurehydrochlorid, reference compound]","Spannung in V, die Schwelle der Aggressivität",Mäuse [1]; [12],29±2 V
same,"Spannung in V, die Schwelle der emotionellen Reaktivität",Mäuse [1]; [12],24±2 V
same,"Spannung in V, die Schwelle der Aggressivität",Mäuse [1]; [13],27±4 V
same,"Spannung in V, die Schwelle der emotionellen Reaktivität",Mäuse [1]; [13],23±2 V
same,"Spannung in V, die Schwelle der Aggressivität",Mäuse [1]; [14],26±3 V
same,"Spannung in V, die Schwelle der emotionellen Reaktivität",Mäuse [1]; [14],20±2 V
same,"Spannung in V, die Schwelle der Aggressivität",Mäuse [1]; [15],24±2 V
same,Körpermasse,[2],veränderte sich wesentlich nicht
same,Anzahl der Impulse im Aktometer innerhalb von 45 min,Mäuse [3]; [12],75±19
same,Anzahl der Impulse im Aktometer innerhalb von 45 min,Mäuse [3]; [13],223±36
same,Anzahl der Impulse im Aktometer innerhalb von 45 min,Mäuse [3]; [14],257±38
same,Anzahl der Impulse im Aktometer innerhalb von 45 min,Mäuse [3]; [15],283±47
same,"Schwimmzeit, Ratten","Ratten [4]; 35 mg/kg chronic, 20 days","328,8±34"
same,"Schwimmzeit, Ratten",Ratten [4]; 35 mg/kg single,"304,3±29"
γ -Amino- β -phenylbuttersäureorotat [Erfindungsgemässe Verbindung],Überlebensdauer,"Mäuse [5]; 50,0 mg/kg","33,8±1,2 min"
same,Überlebensdauer,"Mäuse [5]; 100,0 mg/kg","53,1±4,1 min"
same,Überlebensdauer,"Mäuse [5]; 200,0 mg/kg","46,8±2,7 min"
same,Anzahl der Impulse im Aktometer innerhalb von 60 min,Mäuse [6]; 50 mg/kg + Phenamin 5 mg/kg i.p. 10 min later,1884±111
same,Anzahl der Impulse im Aktometer innerhalb von 60 min,Mäuse [6]; 75 mg/kg + Phenamin 5 mg/kg i.p. 10 min later,1125±141
same,Anzahl der Impulse im Aktometer innerhalb von 60 min,Mäuse [6]; 100 mg/kg + Phenamin 5 mg/kg i.p. 10 min later,812±62
same,Anzahl der Impulse im Aktometer innerhalb von 60 min,Mäuse [6]; 150 mg/kg + Phenamin 5 mg/kg i.p. 10 min later,811±98
same,"Spannung in V, die Schwelle der Aggressivität",Mäuse [1]; [16],30±3 V
same,"Spannung in V, die Schwelle der emotionellen Reaktivität",Mäuse [1]; [16],22±2 V
same,"Spannung in V, die Schwelle der Aggressivität",Mäuse [1]; [17],29±2 V
same,"Spannung in V, die Schwelle der emotionellen Reaktivität",Mäuse [1]; [17],23±2 V
same,"Spannung in V, die Schwelle der Aggressivität",Mäuse [1]; [18],29±2 V
same,"Spannung in V, die Schwelle der emotionellen Reaktivität",Mäuse [1]; [18],24±3 V
same,"Spannung in V, die Schwelle der Aggressivität",Mäuse [1]; [19],34±3 V
same,"Spannung in V, die Schwelle der emotionellen Reaktivität",Mäuse [1]; [19],22±2 V
same,Zeit des Todeseintritts,"Mäuse [7]; 50 mg/kg + Strophantin 1,7 mg/kg i.v.","22,3 (8,9 - 35,6) min"
same,Verlängerung der Zeit des Todeseintritts der Tiere,"Mäuse [7]; 50 mg/kg, Strophantin","2,5 fache"
same,Körpermasse,[2],veränderte sich wesentlich nicht
same,Beständigkeit bei der Aufbewahrung,[8],beständig
same,Anzahl der Impulse im Aktometer innerhalb von 45 min,Mäuse [3]; [16],125±25
same,Anzahl der Impulse im Aktometer innerhalb von 45 min,Mäuse [3]; [17],108±21
same,Anzahl der Impulse im Aktometer innerhalb von 45 min,Mäuse [3]; [18],109±47
same,Anzahl der Impulse im Aktometer innerhalb von 45 min,Mäuse [3]; [19],123±17
same,"Schwimmzeit, Ratten",Ratten [9],"8,2±0,5"
same,Überlebensdauer,"Mäuse [10]; 50,0 mg/kg i.p. 1 h before","10,8±1,2 min"
same,Überlebensdauer,"Mäuse [10]; 100,0 mg/kg i.p. 1 h before","15,2±1,4 min"
same,Überlebensdauer,"Mäuse [10]; 200,0 mg/kg i.p. 1 h before","27,6±2,6 min"
same,"Schwimmzeit, Ratten","Ratten [4]; 30 mg/kg chronic, 20 days","390,0±56"
same,Zahl der Impulse im Aktometer innerhalb von 30 min,"Ratten [11]; day 1, 25 mg/kg",183±24
same,Zahl der Impulse im Aktometer innerhalb von 30 min,"Ratten [11]; day 1, 75 mg/kg",111±13
same,Zahl der Impulse im Aktometer innerhalb von 30 min,"Ratten [11]; day 1, 200 mg/kg",15±16
same,Zahl der Impulse im Aktometer innerhalb von 30 min,"Ratten [11]; day 35, 25 mg/kg",171±18
same,Zahl der Impulse im Aktometer innerhalb von 30 min,"Ratten [11]; day 35, 75 mg/kg",129±14
same,Zahl der Impulse im Aktometer innerhalb von 30 min,"Ratten [11]; day 35, 200 mg/kg",64±18
same,Zahl der Impulse im Aktometer innerhalb von 30 min,"Ratten [11]; day 70, 25 mg/kg",126±27
same,Zahl der Impulse im Aktometer innerhalb von 30 min,"Ratten [11]; day 70, 75 mg/kg",81±13
same,Zahl der Impulse im Aktometer innerhalb von 30 min,"Ratten [11]; day 70, 200 mg/kg",43±15
same,Zahl der Impulse im Aktometer innerhalb von 30 min,"Ratten [11]; day 85, 25 mg/kg",147±19
same,Zahl der Impulse im Aktometer innerhalb von 30 min,"Ratten [11]; day 85, 75 mg/kg",109±17
same,Zahl der Impulse im Aktometer innerhalb von 30 min,"Ratten [11]; day 85, 200 mg/kg",67±21
same,Zahl der Impulse im Aktometer innerhalb von 30 min,"Ratten [11]; day 107, 25 mg/kg",138±20
same,Zahl der Impulse im Aktometer innerhalb von 30 min,"Ratten [11]; day 107, 75 mg/kg",137±14
same,Zahl der Impulse im Aktometer innerhalb von 30 min,"Ratten [11]; day 107, 200 mg/kg",79±17
same,Zahl der Impulse im Aktometer innerhalb von 30 min,"Ratten [11]; day 120, 25 mg/kg",145±23
same,Zahl der Impulse im Aktometer innerhalb von 30 min,"Ratten [11]; day 120, 75 mg/kg",118±28
same,Zahl der Impulse im Aktometer innerhalb von 30 min,"Ratten [11]; day 120, 200 mg/kg",71±13
same,Zahl der Impulse im Aktometer innerhalb von 30 min,"Ratten [11]; day 138, 25 mg/kg",168±32
same,Zahl der Impulse im Aktometer innerhalb von 30 min,"Ratten [11]; day 138, 75 mg/kg",169±31
same,Zahl der Impulse im Aktometer innerhalb von 30 min,"Ratten [11]; day 138, 200 mg/kg",103±13
same,Zahl der Impulse im Aktometer innerhalb von 30 min,"Ratten [11]; day 154, 25 mg/kg",127±17
same,Zahl der Impulse im Aktometer innerhalb von 30 min,"Ratten [11]; day 154, 75 mg/kg",181±31
same,Zahl der Impulse im Aktometer innerhalb von 30 min,"Ratten [11]; day 154, 200 mg/kg",85±24
same,Zahl der Impulse im Aktometer innerhalb von 30 min,"Ratten [11]; day 180, 25 mg/kg",154±30
same,Zahl der Impulse im Aktometer innerhalb von 30 min,"Ratten [11]; day 180, 75 mg/kg",148±13
same,Zahl der Impulse im Aktometer innerhalb von 30 min,"Ratten [11]; day 180, 200 mg/kg",117±18
